Data reported in ChEMBL document CHEMBL3751785, “Development and structural analysis of adenosine site binding tankyrase inhibitors” (Bioorg Med Chem Lett, 2016).

Assays:
[1] = target: Poly [ADP-ribose] polymerase 1 (Homo sapiens, UniProt P09874); assay: Inhibition of human ARTD1 by fluorescence analysis
[2] = target: Poly [ADP-ribose] polymerase 2 (Homo sapiens, UniProt Q9UGN5); assay: Inhibition of human ARTD2 by fluorescence analysis
[3] = target: T1, Protein mono-ADP-ribosyltransferase PARP3 (Homo sapiens, UniProt Q9Y6F1); assay: Inhibition of human ARTD3 by fluorescence analysis
T1 sequence (Q9Y6F1 whole entry): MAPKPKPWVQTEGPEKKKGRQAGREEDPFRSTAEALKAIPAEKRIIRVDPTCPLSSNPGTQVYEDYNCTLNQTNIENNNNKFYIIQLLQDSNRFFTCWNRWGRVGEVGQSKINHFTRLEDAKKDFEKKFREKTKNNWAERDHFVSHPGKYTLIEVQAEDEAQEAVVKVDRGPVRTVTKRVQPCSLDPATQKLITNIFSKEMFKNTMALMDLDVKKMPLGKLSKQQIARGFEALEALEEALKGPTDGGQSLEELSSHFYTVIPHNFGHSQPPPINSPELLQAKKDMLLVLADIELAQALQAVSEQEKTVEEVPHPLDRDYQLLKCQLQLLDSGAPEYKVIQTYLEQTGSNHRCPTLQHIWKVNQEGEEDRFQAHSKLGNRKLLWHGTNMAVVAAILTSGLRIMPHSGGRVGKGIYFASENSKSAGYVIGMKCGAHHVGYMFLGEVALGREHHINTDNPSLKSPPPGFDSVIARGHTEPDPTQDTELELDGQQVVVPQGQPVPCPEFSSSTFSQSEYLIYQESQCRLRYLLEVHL

[4] = target: Protein mono-ADP-ribosyltransferase PARP4 (Homo sapiens, UniProt Q9UKK3); assay: Inhibition of human ARTD4 by fluorescence analysis
Protein mono-ADP-ribosyltransferase PARP4, sequence (Q9UKK3 whole entry): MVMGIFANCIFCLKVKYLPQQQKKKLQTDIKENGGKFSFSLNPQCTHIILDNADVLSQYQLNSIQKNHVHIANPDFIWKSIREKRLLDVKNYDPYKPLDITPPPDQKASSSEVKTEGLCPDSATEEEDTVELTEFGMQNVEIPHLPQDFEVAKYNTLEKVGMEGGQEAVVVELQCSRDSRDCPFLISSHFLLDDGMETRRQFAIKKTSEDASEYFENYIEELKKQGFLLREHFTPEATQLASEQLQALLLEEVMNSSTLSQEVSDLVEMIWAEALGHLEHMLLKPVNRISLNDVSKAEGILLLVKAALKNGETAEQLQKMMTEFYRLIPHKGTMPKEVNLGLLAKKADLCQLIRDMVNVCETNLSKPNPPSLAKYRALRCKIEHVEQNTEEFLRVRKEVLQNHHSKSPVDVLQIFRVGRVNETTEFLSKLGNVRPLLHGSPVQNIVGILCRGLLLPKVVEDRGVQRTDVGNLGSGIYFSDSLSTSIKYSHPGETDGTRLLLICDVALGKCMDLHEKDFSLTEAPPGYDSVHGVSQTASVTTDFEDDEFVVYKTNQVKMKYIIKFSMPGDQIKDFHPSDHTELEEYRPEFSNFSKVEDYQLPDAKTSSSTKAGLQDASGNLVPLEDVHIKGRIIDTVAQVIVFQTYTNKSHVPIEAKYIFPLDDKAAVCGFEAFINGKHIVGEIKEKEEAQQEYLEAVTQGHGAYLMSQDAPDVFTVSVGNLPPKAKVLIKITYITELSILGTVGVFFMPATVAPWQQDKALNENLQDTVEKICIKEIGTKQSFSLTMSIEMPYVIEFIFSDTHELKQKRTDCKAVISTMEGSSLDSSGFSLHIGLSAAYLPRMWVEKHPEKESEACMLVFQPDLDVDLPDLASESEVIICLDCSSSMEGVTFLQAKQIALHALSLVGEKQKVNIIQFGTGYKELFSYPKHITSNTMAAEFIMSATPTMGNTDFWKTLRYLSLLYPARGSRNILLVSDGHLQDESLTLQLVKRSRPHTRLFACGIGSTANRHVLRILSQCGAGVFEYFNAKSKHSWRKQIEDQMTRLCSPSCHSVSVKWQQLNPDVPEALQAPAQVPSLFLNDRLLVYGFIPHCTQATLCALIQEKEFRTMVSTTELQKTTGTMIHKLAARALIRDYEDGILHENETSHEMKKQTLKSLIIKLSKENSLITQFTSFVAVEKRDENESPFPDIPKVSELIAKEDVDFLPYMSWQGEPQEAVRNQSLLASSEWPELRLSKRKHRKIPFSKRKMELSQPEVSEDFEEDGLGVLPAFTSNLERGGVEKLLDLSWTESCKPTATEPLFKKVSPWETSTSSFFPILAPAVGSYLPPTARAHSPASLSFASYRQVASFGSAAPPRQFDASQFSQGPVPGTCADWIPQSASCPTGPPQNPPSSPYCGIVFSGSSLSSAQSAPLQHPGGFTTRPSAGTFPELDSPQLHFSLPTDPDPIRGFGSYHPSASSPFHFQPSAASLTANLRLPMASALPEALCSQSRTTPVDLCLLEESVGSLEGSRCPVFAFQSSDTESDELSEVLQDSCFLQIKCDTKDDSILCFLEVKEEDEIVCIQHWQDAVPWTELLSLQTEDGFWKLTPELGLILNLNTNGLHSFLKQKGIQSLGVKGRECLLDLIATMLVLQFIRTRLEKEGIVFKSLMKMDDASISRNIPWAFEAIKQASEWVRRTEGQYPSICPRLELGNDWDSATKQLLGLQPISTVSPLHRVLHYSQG

[5] = target: T2, Protein mono-ADP-ribosyltransferase PARP15 (Homo sapiens, UniProt Q460N3); assay: Inhibition of human ARTD7 by fluorescence analysis
T2 sequence (Q460N3 whole entry): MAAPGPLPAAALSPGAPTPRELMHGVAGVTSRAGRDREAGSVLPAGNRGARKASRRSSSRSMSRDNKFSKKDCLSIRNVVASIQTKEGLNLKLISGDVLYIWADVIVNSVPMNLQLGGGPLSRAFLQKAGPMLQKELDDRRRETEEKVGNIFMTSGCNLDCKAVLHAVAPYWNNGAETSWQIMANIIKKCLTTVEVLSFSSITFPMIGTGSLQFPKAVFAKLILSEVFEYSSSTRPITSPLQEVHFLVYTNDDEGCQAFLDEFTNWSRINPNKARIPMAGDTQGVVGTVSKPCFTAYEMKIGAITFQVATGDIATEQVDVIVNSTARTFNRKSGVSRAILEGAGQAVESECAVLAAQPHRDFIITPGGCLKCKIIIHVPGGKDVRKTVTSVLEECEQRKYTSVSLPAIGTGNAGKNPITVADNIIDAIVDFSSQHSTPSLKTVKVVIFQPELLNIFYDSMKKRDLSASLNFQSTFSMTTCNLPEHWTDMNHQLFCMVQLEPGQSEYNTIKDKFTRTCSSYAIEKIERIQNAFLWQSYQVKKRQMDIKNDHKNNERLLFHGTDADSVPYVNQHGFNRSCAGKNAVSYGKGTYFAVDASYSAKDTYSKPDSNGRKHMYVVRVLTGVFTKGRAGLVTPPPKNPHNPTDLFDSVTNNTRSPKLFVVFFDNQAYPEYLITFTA

[6] = target: Protein mono-ADP-ribosyltransferase PARP14 (Homo sapiens, UniProt Q460N5); assay: Inhibition of human ARTD8 by fluorescence analysis
Protein mono-ADP-ribosyltransferase PARP14, sequence (Q460N5 whole entry): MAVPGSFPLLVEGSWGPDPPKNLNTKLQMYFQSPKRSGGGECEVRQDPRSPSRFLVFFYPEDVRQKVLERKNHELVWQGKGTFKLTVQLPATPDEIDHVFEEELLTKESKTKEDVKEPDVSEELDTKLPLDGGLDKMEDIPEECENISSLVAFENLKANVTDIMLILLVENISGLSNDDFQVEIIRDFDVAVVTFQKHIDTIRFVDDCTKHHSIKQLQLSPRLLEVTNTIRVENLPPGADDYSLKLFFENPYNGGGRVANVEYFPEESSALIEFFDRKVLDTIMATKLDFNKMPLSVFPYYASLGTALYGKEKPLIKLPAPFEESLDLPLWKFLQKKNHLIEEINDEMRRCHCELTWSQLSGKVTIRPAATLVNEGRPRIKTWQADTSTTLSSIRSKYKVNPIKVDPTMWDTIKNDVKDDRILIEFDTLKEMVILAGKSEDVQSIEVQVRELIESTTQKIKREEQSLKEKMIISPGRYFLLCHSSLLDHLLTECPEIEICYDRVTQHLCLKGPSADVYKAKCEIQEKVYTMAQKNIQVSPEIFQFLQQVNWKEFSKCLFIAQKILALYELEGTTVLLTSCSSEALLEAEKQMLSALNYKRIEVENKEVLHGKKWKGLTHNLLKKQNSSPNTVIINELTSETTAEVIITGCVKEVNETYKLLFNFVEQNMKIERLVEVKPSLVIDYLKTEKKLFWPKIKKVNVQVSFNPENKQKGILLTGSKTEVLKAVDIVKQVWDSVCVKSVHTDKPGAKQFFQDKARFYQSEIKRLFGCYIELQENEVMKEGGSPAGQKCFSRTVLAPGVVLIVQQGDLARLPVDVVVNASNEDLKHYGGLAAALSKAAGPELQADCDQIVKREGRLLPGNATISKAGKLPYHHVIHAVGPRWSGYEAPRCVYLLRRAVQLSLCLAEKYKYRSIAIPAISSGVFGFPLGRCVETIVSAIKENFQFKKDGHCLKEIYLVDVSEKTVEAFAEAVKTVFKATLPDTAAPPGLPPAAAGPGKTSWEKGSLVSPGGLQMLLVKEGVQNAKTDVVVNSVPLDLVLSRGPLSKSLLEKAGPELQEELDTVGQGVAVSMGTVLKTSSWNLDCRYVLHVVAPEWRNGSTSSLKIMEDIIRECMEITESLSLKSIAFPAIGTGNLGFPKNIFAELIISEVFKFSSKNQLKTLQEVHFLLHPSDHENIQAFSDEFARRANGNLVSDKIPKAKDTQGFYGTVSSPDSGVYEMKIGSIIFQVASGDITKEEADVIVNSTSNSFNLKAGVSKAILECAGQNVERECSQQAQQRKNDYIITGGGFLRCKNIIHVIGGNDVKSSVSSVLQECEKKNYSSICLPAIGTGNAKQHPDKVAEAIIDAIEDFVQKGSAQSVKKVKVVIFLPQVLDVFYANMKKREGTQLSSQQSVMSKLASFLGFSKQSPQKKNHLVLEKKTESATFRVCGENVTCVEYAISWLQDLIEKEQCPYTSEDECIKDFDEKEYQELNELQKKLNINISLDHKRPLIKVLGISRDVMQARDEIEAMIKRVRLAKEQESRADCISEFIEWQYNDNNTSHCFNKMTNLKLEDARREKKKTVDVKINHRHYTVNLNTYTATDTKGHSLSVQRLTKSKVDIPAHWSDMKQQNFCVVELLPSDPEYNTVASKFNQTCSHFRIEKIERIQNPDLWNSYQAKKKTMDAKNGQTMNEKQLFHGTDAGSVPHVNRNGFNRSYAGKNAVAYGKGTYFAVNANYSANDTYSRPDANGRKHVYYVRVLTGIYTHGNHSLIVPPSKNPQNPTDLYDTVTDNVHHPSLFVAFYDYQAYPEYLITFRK

[7] = target: T3, Protein mono-ADP-ribosyltransferase PARP10 (Homo sapiens, UniProt Q53GL7); assay: Inhibition of human ARTD10 by fluorescence analysis
T3 sequence (Q53GL7 whole entry): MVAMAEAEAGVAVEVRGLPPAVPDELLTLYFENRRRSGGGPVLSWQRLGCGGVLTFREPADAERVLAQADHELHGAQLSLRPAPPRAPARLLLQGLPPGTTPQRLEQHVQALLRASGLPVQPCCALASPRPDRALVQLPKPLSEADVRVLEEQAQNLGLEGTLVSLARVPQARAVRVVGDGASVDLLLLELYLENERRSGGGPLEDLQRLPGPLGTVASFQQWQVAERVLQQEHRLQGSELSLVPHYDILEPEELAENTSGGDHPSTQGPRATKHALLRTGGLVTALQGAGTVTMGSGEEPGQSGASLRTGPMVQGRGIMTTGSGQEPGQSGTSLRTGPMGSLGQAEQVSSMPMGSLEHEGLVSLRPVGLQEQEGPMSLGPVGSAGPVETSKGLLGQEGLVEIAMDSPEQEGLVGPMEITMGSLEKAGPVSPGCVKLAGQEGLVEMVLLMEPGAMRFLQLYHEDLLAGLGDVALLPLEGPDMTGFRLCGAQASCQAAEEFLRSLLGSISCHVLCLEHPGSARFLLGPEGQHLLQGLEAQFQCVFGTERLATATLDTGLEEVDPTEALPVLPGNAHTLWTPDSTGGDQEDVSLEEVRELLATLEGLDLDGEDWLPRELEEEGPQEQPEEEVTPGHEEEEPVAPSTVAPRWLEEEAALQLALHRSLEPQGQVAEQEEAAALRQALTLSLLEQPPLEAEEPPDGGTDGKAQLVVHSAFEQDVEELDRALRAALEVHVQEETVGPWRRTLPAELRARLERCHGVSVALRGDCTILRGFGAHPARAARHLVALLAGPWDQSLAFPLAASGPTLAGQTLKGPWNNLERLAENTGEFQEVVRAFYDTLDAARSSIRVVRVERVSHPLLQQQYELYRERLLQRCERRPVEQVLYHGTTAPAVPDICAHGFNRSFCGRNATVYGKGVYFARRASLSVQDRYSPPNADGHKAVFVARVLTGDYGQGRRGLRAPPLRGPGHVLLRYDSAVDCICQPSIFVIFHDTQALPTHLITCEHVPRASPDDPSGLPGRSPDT

[8] = target: T4, Protein mono-ADP-ribosyltransferase PARP12 (Homo sapiens, UniProt Q9H0J9); assay: Inhibition of human ARTD12 by fluorescence analysis
T4 sequence (Q9H0J9 whole entry): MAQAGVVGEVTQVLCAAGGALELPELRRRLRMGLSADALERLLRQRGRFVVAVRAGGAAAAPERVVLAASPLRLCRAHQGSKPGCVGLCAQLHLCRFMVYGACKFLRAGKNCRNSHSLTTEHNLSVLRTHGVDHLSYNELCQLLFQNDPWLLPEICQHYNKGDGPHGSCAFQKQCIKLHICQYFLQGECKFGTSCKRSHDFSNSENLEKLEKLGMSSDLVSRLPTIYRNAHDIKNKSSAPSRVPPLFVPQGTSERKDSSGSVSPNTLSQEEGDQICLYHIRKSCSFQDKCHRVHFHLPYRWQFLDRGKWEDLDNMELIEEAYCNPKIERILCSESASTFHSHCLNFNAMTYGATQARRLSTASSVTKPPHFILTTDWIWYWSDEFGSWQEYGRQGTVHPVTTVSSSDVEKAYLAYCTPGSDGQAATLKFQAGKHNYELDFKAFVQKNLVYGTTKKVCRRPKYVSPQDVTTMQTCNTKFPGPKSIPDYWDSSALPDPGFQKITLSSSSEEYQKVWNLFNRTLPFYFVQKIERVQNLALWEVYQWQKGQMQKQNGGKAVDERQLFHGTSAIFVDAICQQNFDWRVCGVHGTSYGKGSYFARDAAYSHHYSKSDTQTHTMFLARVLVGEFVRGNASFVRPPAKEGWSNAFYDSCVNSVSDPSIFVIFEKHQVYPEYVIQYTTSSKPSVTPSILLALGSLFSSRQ

Poly [ADP-ribose] polymerase 2, sequence (Q9UGN5 whole entry): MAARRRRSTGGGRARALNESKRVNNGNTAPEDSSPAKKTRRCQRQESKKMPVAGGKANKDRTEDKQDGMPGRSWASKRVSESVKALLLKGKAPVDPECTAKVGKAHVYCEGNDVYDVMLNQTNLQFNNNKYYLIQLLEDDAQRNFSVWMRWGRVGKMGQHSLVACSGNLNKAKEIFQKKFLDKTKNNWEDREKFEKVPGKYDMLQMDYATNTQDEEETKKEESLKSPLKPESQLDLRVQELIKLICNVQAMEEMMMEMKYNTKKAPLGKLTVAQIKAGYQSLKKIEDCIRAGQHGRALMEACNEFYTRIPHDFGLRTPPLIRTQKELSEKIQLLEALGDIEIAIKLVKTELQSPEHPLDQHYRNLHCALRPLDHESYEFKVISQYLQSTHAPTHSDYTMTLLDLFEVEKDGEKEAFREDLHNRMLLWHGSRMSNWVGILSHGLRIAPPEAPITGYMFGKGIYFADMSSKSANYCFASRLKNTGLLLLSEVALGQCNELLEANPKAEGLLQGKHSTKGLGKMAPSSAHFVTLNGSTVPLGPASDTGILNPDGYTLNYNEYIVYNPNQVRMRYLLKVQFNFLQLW
Poly [ADP-ribose] polymerase 1, sequence (P09874 whole entry): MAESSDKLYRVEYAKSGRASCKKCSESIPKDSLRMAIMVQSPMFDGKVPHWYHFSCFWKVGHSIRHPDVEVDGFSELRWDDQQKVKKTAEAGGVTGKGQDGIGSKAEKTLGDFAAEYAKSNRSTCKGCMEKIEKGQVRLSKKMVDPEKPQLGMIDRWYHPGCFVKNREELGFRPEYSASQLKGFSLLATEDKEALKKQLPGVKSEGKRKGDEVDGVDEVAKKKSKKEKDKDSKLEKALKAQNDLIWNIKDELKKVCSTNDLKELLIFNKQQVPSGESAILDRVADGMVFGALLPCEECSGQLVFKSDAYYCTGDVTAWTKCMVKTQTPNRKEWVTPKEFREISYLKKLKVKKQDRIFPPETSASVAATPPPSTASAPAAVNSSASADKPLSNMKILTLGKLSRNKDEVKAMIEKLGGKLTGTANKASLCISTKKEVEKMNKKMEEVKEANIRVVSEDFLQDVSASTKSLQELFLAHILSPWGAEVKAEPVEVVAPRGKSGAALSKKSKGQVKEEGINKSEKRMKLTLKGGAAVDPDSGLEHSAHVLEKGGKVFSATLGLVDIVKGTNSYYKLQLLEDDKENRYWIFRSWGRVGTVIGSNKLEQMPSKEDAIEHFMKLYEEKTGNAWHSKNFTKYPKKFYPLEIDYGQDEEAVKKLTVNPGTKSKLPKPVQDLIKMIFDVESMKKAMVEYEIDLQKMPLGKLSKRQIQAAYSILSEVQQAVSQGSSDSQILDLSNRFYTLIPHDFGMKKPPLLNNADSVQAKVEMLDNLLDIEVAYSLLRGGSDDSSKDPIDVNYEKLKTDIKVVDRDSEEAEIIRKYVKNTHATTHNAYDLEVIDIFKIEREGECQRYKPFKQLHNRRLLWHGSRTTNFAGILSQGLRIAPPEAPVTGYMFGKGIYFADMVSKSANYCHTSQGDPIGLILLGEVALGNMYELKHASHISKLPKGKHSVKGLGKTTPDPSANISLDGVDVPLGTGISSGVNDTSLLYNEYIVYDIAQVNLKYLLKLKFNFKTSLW

- IC50 [1]: 77 µM
- IC50 [2]: > 100 µM
- IC50 [3]: > 100 µM
- IC50 [4]: > 100 µM
- IC50 [5]: > 10 µM
- IC50 [6]: > 10 µM
- IC50 [7]: > 10 µM
- IC50 [8]: > 10 µM
SMILES: COc1ccc(C(=O)Nc2ccc(C(=O)N(c3ccncn3)c3ccccc3Cl)cc2)cc1
